Data taken from article PMC10535741, “Styrylpyridinium Derivatives for Fluorescent Cell Imaging” (Pharmaceuticals, 2023).

Assays:
BHK-21 cells = assay type: cell-based, Syrian hamster; details: BHK-21, 24 h after staining
Protocol: SP compound 6e was selected for fluorescent cell imaging analysis. First, the compound was used to label the BHK-21 cells that are widely used in molecular biology studies. Commercially available CellTracker™ Deep Red dye (Invitrogen) was used as a control because it has a similar emission range (ex/em: 630/660). The BHK-21 cells were incubated with fluorescent dyes to stain the cells, then seeded on a 24-well plate and cultured for 24 h. SP compound 6e was used at 25 μM concentration, providing a non-toxic effect on BHK-21 cells (Table S2, entry 5, Supplementary Materials). The Deep Red dye was used according to the manufacturer’s instructions.
The day after staining, the cells were collected and washed several times with PBS buffer in order to evaluate the stability of the staining. The fluorescent signal was analysed by flow cytometry (Figure 3). […] However, only (61 ± 3)% of Deep Red stained cells were positive, whereas SP compound 6e ensured 99.9% positive cells. Moreover, the signal intensity (fluorescence shift from unstained cells) of cells stained with compound 6e was remarkably higher than for the Deep Red dye. The calculated stain index for SP compound 6e was (92 ± 19) before cell washing and (77 ± 15) after cell washing. However, in the case of Deep Red, the calculated stain index was (2.27 ± 0.07) before cell washing and (2.21 ± 0.07) after cell washing. High intensity usually facilitates flow cytometry data acquisition by enhancing the signal-to-background ratio and enabling optimal compensation in complex multicolour fluorescence analysis. […]
When cells reached 90% confluency, they were stained with 25 μM compound 6e or 1 μM CellTracker™ Deep Red dye (Cat. No. C34565; Invitrogen) according to the manufacturer’s instructions. […] Stained cells were kept at 4 °C and analysed using a FACSAria BD Hardware flow cytometer with FACSDiva 6.1.3 software (BD Biosciences, San Jose, CA, USA). […] The data were analysed using FlowJo 10.3 software (FlowJo LLC, Ashland, OR, USA) and presented as the mean of three independent experiments. […]

BMDMs = test: Nitric oxide production of pre-stained macrophages polarised to M1 phenotype (Griess test); assay type: cell-based, mouse; details: after 2 days activation with IFNγ and PAM3SCK4; 5-50 μM 6e
Protocol: The impact of SP compound 6e on the BMDMs’ functional characteristics was also assessed by performing cell differentiation into the M1 phenotype in the presence of compound 6e. The BMDMs were treated with 5–50 μM compound 6e and the cell medium was replaced with a macrophage differentiation medium containing recombinant mouse interferon-gamma (IFNγ) and the TLR2/1 ligand PAM3SCK4 to ensure M1 polarisation. Activated cells express proinflammatory molecules (cytokines and chemokines), as well as nitric oxide (NO) as the main features of their proinflammatory M1-like macrophage phenotype. To verify the NO level in cell culture media, nitrites, as nitric oxide oxidation products, were measured by the standard Griess test. […]
For polarisation of macrophages to the pro-inflammatory M1 phenotype, the BMDM cells stained in a 12-well plate were used. […] After two days of activation, the nitric oxide levels (as a main signal of M1 polarisation) were measured in cell supernatants of activated (M1) and non-activated (M0) cells. The amount of nitric oxide was determined via a nitric oxide assay kit (Cat. No. EMSNO; Invitrogen). Briefly, 50 µL of cell culture media was collected from each well, clarified by centrifugation, and used for NO quantification. The nitrite standards provided by the kit were used for standard curve generation and NO quantification. […]

[1] = system: murine bone-marrow-derived macrophages (BMDMs); test: cells; details: Mus musculus, BMDM, 24 h, read-out: IC50 (BMDM viability)
Protocol: (§1) In this study, we used murine bone-marrow-derived macrophages (BMDMs) to evaluate the staining potential of the 6e compound in primary immune cells. […] To assess toxicity, the BMDMs were stained with various concentrations (0.1–100 μM) of compound 6e, and after 24 h, cell viability was measured using the CCK-8 assay (Figure 5).
(§2) To determine the cytotoxicity of the SP compound 6e, the cells were stained with various concentrations of the dye (0, 0.1, 1, 5, 10, and 100 μM). Briefly, 2 × 10^4 cells were plated in a 96-well plate in 100 μL of the medium. After 24 h, the cells were washed once and a solution of compound 6e in PBS was added to the cells. The cells were incubated in a humidified 5% CO2 incubator at 37 °C for 15–20 min. Then, the dye solution was replaced with medium. […] After 24 h, the medium was replaced with 10 μL of CCK-8 reagent in 100 μL of fresh medium. The cells were incubated in a humidified 5% CO2 incubator at 37 °C for 1–4 h. The absorbance at 450 nm was measured using a microplate spectrophotometer (BioTek Instruments, Winooski, VT, USA). Cell viability was calculated as a percentage of non-treated cell absorbance. IC50 values were calculated as the concentration at which 50% of the cells were viable.

in vitro = details: mouse
Protocol: as §1, §2

SMILES: CCCCCCCCCCCCCCCC[n+]1ccc(C=CC=Cc2cc3c4c(c2)CCCN4CCC3)cc1.[Br-] [Compound 6e, 1-hexadecyl-4-(4-(2,3,6,7-tetrahydro-1H,5H-pyrido[3,2,1-ij]quinolin-9-yl)buta-1,3-dien-1-yl)pyridin-1-ium bromide]
- stain index after cell washing (BHK-21 cells; washed 3 times with PBS): 77 ± 15
- positive (stained) cells (BHK-21 cells; 25 μM 6e or 1 μM Deep Red): 99.9%
- stain index before cell washing (BHK-21 cells; 25 μM 6e or 1 μM Deep Red): 92 ± 19
- NO production of stained BMDMs (BMDMs): up to 21.5 µM
- IC50 [1]: 9.2 ± 1.5 µM
- viability at 24 h, 5 µM (in vitro): 79.1 ± 1.2%
